Read-outs that look alike come from different tables or passages of the source.
Experiments:
[1] = test system: subjects with PSC and suspected liver fibrosis; assay: Phase 2a INTEGRIS-PSC: gadoxetate contrast MRI of the liver; format: in vivo, human; conditions: for MRI relative enhancement (gadoxetate) / time to arrival to the common bile duct (gadoxetate): Example B-5
Protocol: Imaging of the whole liver was performed by MRI prior to Baseline and at Week 12 (Parts 1 and 2) and will be performed at Baseline, at Week 12, and at Week 24 (Part 3 only), and will be read centrally utilizing dynamic liver imaging in combination with the contrast agent Gadoxetate disodium and a 4-hour fast (no food or drink, except water). Any clinically significant incidental findings are evaluated as potential AEs.
Absolute and relative changes from Baseline in liver fibrosis biomarkers (including PRO-C3 and ELF) and in ALP are presented in numerical and graphical forms by treatment and dose utilizing data from the timepoints specified in the Schedule of Events. Changes from Baseline to Week 12(Parts 1 and 2) and Week 24 (Part 3) in magnetic resonance (MR)-based liver imaging are also evaluated, as well as changes in PROs.

[2] = test system: BALB/c.Mdr2−/− mouse model of biliary fibrosis; assay: Liver and kidney biochemistries in serum (ALT, ALP, total bilirubin); format: in vivo; conditions: 6 weeks
Description: The tissue source is BALBc.Mdr2-/−male mice that were 6 weeks old. The Mdr2(abcb4)−/− mouse model of sclerosing cholangitis has been previously described and is a model of spontaneously progressive hepatic fibrosis in mice with deletion of the biliary phospholipid flippase on fibrosis-susceptible background (Mdr2(abcb4)^−/−. BALB/c mouse). See N. Ikenaga, et al. (2015) Am J Pathol. 185 (2): 325-334, the entire contents of which are hereby incorporated by reference in their entirety.
(S)-4-((2-methoxyethyl)(4-(5,6,7,8-tetrahydro-1,8-naphthyridin-2-yl)butyl)amino)-2-(quinazolin-4-ylamino)butanoic acid (or PBS) was dosed once daily orally at 100 mg/kg, 300 mg/kg or 1000 mg/kg (see Table B-2) starting at 6 weeks after birth of the subject and continuing for 6 weeks. All animals were euthanized and necropsied at the end of week 12.
Determination of ALT, ALP, and total bilirubin was performed as conventional liver and kidney function tests at the clinical biochemistry core (BIDMC).

[3] = test system: subjects with PSC and suspected liver fibrosis
[4] = all doses, Week 12, MRI sub-study, Example B-4
[5] = 40 mg (n = 24), 12 weeks, Example B-3
[6] = 40 mg once daily, Week 12, n = 24
[7] = 80 mg (n = 20), 12 weeks, Example B-3
[8] = 80 mg once daily, Week 12, n = 20
[9] = 160 mg (n = 20), 12 weeks, Example B-3
[10] = 160 mg once daily, Week 12, n = 20
[11] = 320 mg once daily, Week 12, n = 27
[12] = 320 mg, Example B-5 24-week data (Table D-7), n = 27
[13] = 40, 80, 160, and 320 mg pooled, Week 12, n = 91
[14] = All (n = 64), 12 weeks, Example B-3

SMILES: COCCN(CCCCc1ccc2c(n1)NCCC2)CC[C@H](Nc1ncnc2ccccc12)C(=O)O [Bexotegrast, (S)-4-((2-methoxyethyl)(4-(5,6,7,8-tetrahydro-1,8-naphthyridin-2-yl)butyl)amino)-2-(quinazolin-4-ylamino)butanoic acid]
- MRI relative enhancement (gadoxetate) ([1]; 320 mg, Week 12, MRI sub-study): increased relative enhancement
- time to arrival to the common bile duct (gadoxetate) ([1]; 320 mg, Week 12, MRI sub-study): decreased time to arrival
- MRI imaging: hepatocyte function and bile flow relative to placebo ([1]; 320 mg, Week 12, Example B-4): evidence of improved hepatocyte function and bile flow
- MRI relative enhancement (gadoxetate) ([1]; 320 mg, Week 24, MRI sub-study): further increase in relative enhancement
- time to arrival to the common bile duct (gadoxetate) ([1]; 320 mg, Week 24, MRI sub-study): faster time to arrival
- change in Gadoxetate time of arrival in bile duct ([1]; all doses compared to placebo, Week 12, Example B-3): shorter
- MRI relative enhancement in whole liver (gadoxetate) ([1]; all doses, Baseline to Week 12, compared to a reduction in placebo, Example B-3): improvement in relative enhancement
- Gadoxetate relative enhancement (RE) compared to the placebo [1, 4]: increase
- Gadoxetate time of arrival to the common bile duct compared to the placebo [1, 4]: reduced
- serum alkaline phosphatase levels ([2]; 1000 mg/kg, vs vehicle): significantly decreased
- serum ALT levels ([2]; 100, 300, 1000 mg/kg): did not change
- serum total bilirubin levels ([2]; 100, 300, 1000 mg/kg): dose dependent trend down
- COVID-19 TEAE, % of Participants Reporting [3, 5]: (8.3) %
- COVID-19 TEAE, n of Participants Reporting [3, 5]: 2 n
- TEAE Leading to Death, n of Participants Reporting [3, 5]: 0 n
- COVID-19 TEAE, % of Participants Reporting [3, 6]: (8.3) %
- COVID-19 TEAE, n of Participants Reporting [3, 6]: 2
- TEAE Leading to Death, n of Participants Reporting [3, 6]: 0
- TEAE Leading to Withdrawal of bexotegrast, n of Participants Reporting ([3]; 40 mg once daily, Week 12, n = 24, COVID-19/dyspnoea/nasal congestion): 1
- TEAE leading to withdrawal: AE Preferred Term ([3]; 40 mg treatment group, Example B-3): COVID-19/
- COVID-19 TEAE, % of Participants Reporting [3, 7]: (5.0) %
- COVID-19 TEAE, n of Participants Reporting [3, 7]: 1 n
- TEAE Leading to Death, n of Participants Reporting [3, 7]: 0 n
- COVID-19 TEAE, % of Participants Reporting [3, 8]: (5.0) %
- COVID-19 TEAE, n of Participants Reporting [3, 8]: 1
- TEAE Leading to Death, n of Participants Reporting [3, 8]: 0
- COVID-19 TEAE, n of Participants Reporting [3, 9]: 0 n
- TEAE Leading to Death, n of Participants Reporting [3, 9]: 0 n
- COVID-19 TEAE, n of Participants Reporting [3, 10]: 0
- TEAE Leading to Death, n of Participants Reporting [3, 10]: 0
- COVID-19 TEAE, % of Participants Reporting [3, 11]: (14.8) %
- COVID-19 TEAE, n of Participants Reporting [3, 11]: 4
- TEAE Leading to Death, n of Participants Reporting [3, 11]: 0
- TEAE Leading to Death, n of Participants Reporting After Week 12 ([3]; 320 mg, After Week 12 (Table D-4), n = 27): 0
- COVID-19 TEAE, % of Participants Reporting [3, 12]: 18.5%
- COVID-19 TEAE, n of Participants Reporting [3, 12]: 5
- TEAE Leading to Death, n of Participants Reporting ([3]; 320 mg, after 24 weeks (Table D-3), n = 27): 0
- COVID-19 TEAE, % of Participants Reporting [3, 13]: (7.7) %
- COVID-19 TEAE, n of Participants Reporting [3, 13]: 7
- TEAE Leading to Death, n of Participants Reporting [3, 13]: 0
- COVID-19 TEAE, % of Participants Reporting [3, 14]: (4.7) %
- COVID-19 TEAE, n of Participants Reporting [3, 14]: 3 n
- TEAE Leading to Death, n of Participants Reporting [3, 14]: 0 n
- Cholangitis (TEAE), n of Participants Reporting ([3]; human, in vivo, 12 weeks): 2 n
- Fatigue (TEAE), n of Participants Reporting ([3]; human, in vivo, 12 weeks): 9 n
- Frequent bowel movements (TEAE), % of Participants Reporting ([3]; human, in vivo, 12 weeks): (4.7) %
- Frequent bowel movements (TEAE), n of Participants Reporting ([3]; human, in vivo, 12 weeks): 3 n
- Headache (TEAE), n of Participants Reporting ([3]; human, in vivo, 12 weeks): 6 n
- Nausea (TEAE), n of Participants Reporting ([3]; human, in vivo, 12 weeks): 6 n
- Pruritus (TEAE), n of Participants Reporting ([3]; human, in vivo, 12 weeks): 9 n
- Serious TEAE Related to study drug, n of Participants Reporting ([3]; human, in vivo, 12 weeks): 0 n
- Serious TEAE, % of Participants Reporting ([3]; human, in vivo, 12 weeks): (3.1) %
- Serious TEAE, n of Participants Reporting ([3]; human, in vivo, 12 weeks): 2 n
- TEAE Leading to Early Termination from Study, % of Participants Reporting ([3]; human, in vivo, 12 weeks): (1.6)^1%
- TEAE Leading to Early Termination from Study, n of Participants Reporting ([3]; human, in vivo, 12 weeks): 1 n
- TEAE Leading to Interruption of Study Drug, % of Participants Reporting ([3]; human, in vivo, 12 weeks): (1.6)^1%
- TEAE Leading to Interruption of Study Drug, n of Participants Reporting ([3]; human, in vivo, 12 weeks): 1 n
- TEAE Leading to Withdrawal of Study Drug, % of Participants Reporting ([3]; human, in vivo, 12 weeks): (4.7)^2, 3, 4%
- TEAE Leading to Withdrawal of Study Drug, n of Participants Reporting ([3]; human, in vivo, 12 weeks): 3 n
- TEAE Related to study drug, % of Participants Reporting ([3]; human, in vivo, 12 weeks): (17.2) %
- TEAE Related to study drug, n of Participants Reporting ([3]; human, in vivo, 12 weeks): 11 n
- TEAE of CTCAE Grade 3 or Higher Related to study drug, n of Participants Reporting ([3]; human, in vivo, 12 weeks): 0 n
- TEAE of CTCAE Grade 3 or Higher, % of Participants Reporting ([3]; human, in vivo, 12 weeks): (6.3) %
- TEAE of CTCAE Grade 3 or Higher, n of Participants Reporting ([3]; human, in vivo, 12 weeks): 4 n
- TEAE, % of Participants Reporting ([3]; human, in vivo, 12 weeks): (64.1) %
- TEAE, n of Participants Reporting ([3]; human, in vivo, 12 weeks): 41 n
- AEs of pruritus and cholangitis relative to placebo ([3]; in vivo): occurred less frequently

From patent publication US20250120975A1, “INTEGRIN INHIBITORS FOR TREATMENT OF PRIMARY SCLEROSING CHOLANGITIS” (Pliant Therapeutics, Inc., priority 2023, published 2025)
